These are literature values, as cited in patent publication US12150969B2, “Synthetically enveloped virus” (priority 2016, dated 2024).

Data set [1] has as its system Ras-dependent tumor growth. As to conditions: established cancer models.

For the compound `CC(C)=CCC/C(C)=C/CC/C(C)=C/CSc1ccccc1C(=O)O` [FTS, S-trans, trans-farnesylthiosalicylic acid], in data set [1], the “tumor growth and toxicity in animals” value is recorded as “inhibition of tumor growth in animals with no adverse toxicity”. For the same compound, the Ras antagonist activity entry in the data set on Ras was “potent and especially nontoxic Ras antagonist”.
